Experimental data: the supplement of paper PMC11061612

Columns and labels:
Assay in all cases: combination Emax (second highest fraction inhibited in the dose matrix, 72 h); higher = more inhibition; extreme values may be limits of the assay
[1] = system: A4-Fuk (B-Lymphoblastic Leukemia)
Procedure, shortened: (§1)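 Cell lines grown in DMEM/F12 or RPMI with 10% FBS were plated in 1536-well plates and held 24 hours at 37°C, 5% CO2 before 72 hours of exposure to two-drug dose matrices, with DMSO typically at 0.2%. CellTiter-Glo 2.0 luminescence gave viability, which was converted to inhibition. Vehicle wells were set to 0 and blank wells to 1. Combination Emax is the second-highest inhibition in the matrix, and Bliss excess is the observed combination effect minus the expected EA + EB − EA·EB, where EA and EB are the single-agent effects.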

[2] = system: Ca-Ski (Cervical Carcinoma)
Procedure, shortened: as §1

[3] = system: MDA-MB-453 (Breast Carcinoma)
Procedure, shortened: as §1

[4] = system: MOLT-4 (T-Lymphoblastic Leukemia)
Procedure, shortened: as §1

[5] = system: ME-180 (Cervical Carcinoma)
Procedure, shortened: as §1

[6] = system: SK-LU-1 (Lung Adenocarcinoma)
Procedure, shortened: as §1

[7] = system: MV-4-11 (Acute Myeloid Leukemia)
Procedure, shortened: as §1

[8] = system: NCI-H522 (Lung Adenocarcinoma)
Procedure, shortened: as §1

[9] = system: KGN (Other Solid Carcinomas)
Procedure, shortened: as §1

[10] = system: OE33 (Esophageal Adenocarcinoma)
Procedure, shortened: as §1

[11] = system: ML-2 (Acute Myeloid Leukemia)
Procedure, shortened: as §1

COLO-679 (Melanoma) = system: COLO-679 (Melanoma)
Procedure, shortened: as §1

[12] = system: NCI-H1993 (Lung Adenocarcinoma)
Procedure, shortened: as §1

[13] = system: KOPN-8 (B-Lymphoblastic Leukemia)
Procedure, shortened: as §1

[14] = system: ALL-SIL (T-Lymphoblastic Leukemia)
Procedure, shortened: as §1

[15] = system: OACM5-1 (Esophageal Adenocarcinoma)
Procedure, shortened: as §1

[16] = system: NCI-H1092 (Small Cell Lung Carcinoma)
Procedure, shortened: as §1

[17] = system: EJM (Plasma Cell Myeloma)
Procedure, shortened: as §1

[18] = system: HCC1500 (Breast Carcinoma)
Procedure, shortened: as §1

Hey (Ovarian Carcinoma) = system: Hey (Ovarian Carcinoma)
Procedure, shortened: as §1

Row | Structure (SMILES) | combination Emax [1] | combination Emax [2] | combination Emax [3] | combination Emax [4] | combination Emax [5] | combination Emax [6] | combination Emax [7] | combination Emax [8] | combination Emax [9] | combination Emax [10] | combination Emax [11] | combination Emax (COLO-679 (Melanoma)) | combination Emax [12] | combination Emax [13] | combination Emax [14] | combination Emax [15] | combination Emax [16] | combination Emax [17] | combination Emax [18] | combination Emax (Hey (Ovarian Carcinoma))
1 | Cc1c2c(nn1C)CSCc1cc(n(C)n1)CSc1cc(c3ccccc3c1)OCCCc1c(C(=O)O)n(C)c3c-2c(Cl)ccc13 [AZD5991] + CS(=O)(=O)CCNCc1ccc(-c2ccc3ncnc(Nc4ccc(OCc5cccc(F)c5)c(Cl)c4)c3c2)o1 [Lapatinib] (first compound max 1 µM, 7x7, partner max 10 µM) | 1 | 0.735 | 0.527 | 0.604 | 0.492 | 0.229 | 1 | 0.626 | 0.454 | 0.529 | 1 | 0.188 | 0.433 |  |  |  |  |  |  | 
2 | O=C(c1cc(Cc2n[nH]c(=O)c3ccccc23)ccc1F)N1CCN(C(=O)C2CC2)CC1 [Olaparib] + CC1(C)CCC(CN2CCN(c3ccc(C(=O)NS(=O)(=O)c4ccc(NCC5CCOCC5)c([N+](=O)[O-])c4)c(Oc4cnc5[nH]ccc5c4)c3)CC2)=C(c2ccc(Cl)cc2)C1 [Venetoclax] (first compound max 10 µM, 7x7, partner max 1 µM) | 0.301 | 0.162 | 0.104 | 0.7 | 0.14 | 0.2 | 1 | 0.0786 | 0.292 | 0.139 | 0.961 | 0.0175 | 0.0726 |  |  |  |  |  |  | 
3 | O=C(c1cc(Cc2n[nH]c(=O)c3ccccc23)ccc1F)N1CCN(C(=O)C2CC2)CC1 [Olaparib] + COc1nnc2ccc(N3CCC(c4ccc(OCCN5CCN(C)C(=O)[C@H]5C)cc4)CC3)nn12 [AZD5153] (first compound max 10 µM, 7x7, partner max 1 µM) | 0.876 | 0.481 | 0.664 | 0.591 | 0.424 | 0.332 | 1 | 0.309 | 0.712 | 0.224 | 0.917 | 0.321 | 0.459 |  |  |  |  |  |  | 
4 | C[C@@H](Nc1cc(F)cc(F)c1)c1cc(C(=O)N(C)C)cc2c(=O)cc(N3CCOCC3)oc12 [AZD8186] + CC(=O)c1c(C)c2cnc(Nc3ccc(N4CCNCC4)cn3)nc2n(C2CCCC2)c1=O [Palbociclib] (first compound max 10 µM, 7x7, partner max 10 µM) | 0.706 | 0.484 | 0.578 | 0.661 | 0.391 | 0.434 | 0.859 | 0.147 | 0.798 | 0.477 | 0.686 | 0.269 | 0.578 |  |  |  |  |  |  | 
5 | C[C@@H](Oc1cc(-c2cnn(C3CCNCC3)c2)cnc1N)c1c(Cl)ccc(F)c1Cl [Crizotinib] + Cn1cnc2c(F)c(Nc3ccc(Br)cc3Cl)c(C(=O)NOCCO)cc21 [Selumetinib] (first compound max 10 µM, 7x7, partner max 10 µM) | 0.942 | 0.551 | 0.15 | 0.815 | 0.269 | 0.34 | 1 | 0.117 | 0.816 | 0.539 | 1 | 0.798 | 0.871 |  |  |  |  |  |  | 
6 | CN(CCO)CC[C@H](CSc1ccccc1)Nc1ccc(S(=O)(=O)NC(=O)c2ccc(N3CCC([C@@H](O)c4ccccc4-c4ccc(Cl)cc4)CC3)cc2)cc1S(=O)(=O)C(F)(F)F [AZD4320] + CS(=O)(=O)CCNCc1ccc(-c2ccc3ncnc(Nc4ccc(OCc5cccc(F)c5)c(Cl)c4)c3c2)o1 [Lapatinib] (first compound max 1 µM, 7x7, partner max 10 µM) | 0.931 | 1 | 0.548 | 1 | 0.7 | 0.47 | 1 | 0.237 | 0.494 | 0.806 | 1 | 0.308 | 0.943 |  |  |  |  |  |  | 
7 | Cc1nc(-c2cn3c(n2)-c2ccc(-c4cnn(C(C)(C)C(N)=O)c4)cc2OCC3)n(C(C)C)n1 [Taselisib] + O=C(Nc1ccc2[nH]nc(-c3ccncc3)c2c1)[C@@H]1CCN(CC(=O)N2CCN(c3ccc(-c4ncccn4)cc3)CC2)C1 [SCH772984] (first compound max 10 µM, 7x7, partner max 5 µM) | 1 | 0.833 | 0.721 | 0.837 | 0.732 | 0.516 | 0.905 | 0.339 | 0.816 | 0.831 | 1 | 0.851 | 0.886 |  |  |  |  |  |  | 
8 | CC1(C)CCC(CN2CCN(c3ccc(C(=O)NS(=O)(=O)c4ccc(NCC5CCOCC5)c([N+](=O)[O-])c4)c(Oc4cnc5[nH]ccc5c4)c3)CC2)=C(c2ccc(Cl)cc2)C1 [Venetoclax] + C[C@@H]1COCCN1C2=NC(=NC(=C2)C3(CC3)[S@](=N)(=O)C)C4=C5C=CNC5=NC=C4 [AZD6738] (first compound max 1 µM, 7x7, partner max 10 µM) | 0.775 | 0.581 | 0.761 | 1 | 0.571 |  | 1 | 0.161 | 0.751 | 0.773 | 1 | 0.639 | 0.582 | 1 | 1 | 0.678 | 0.458 | 0.869 | 0.855 | 0.774
9 | COc1cccc(OCCCN)c1-c1cc(Nc2cnc(C#N)cn2)n[nH]1 [Prexasertib] + C=CCn1c(=O)c2cnc(Nc3ccc(N4CCN(C)CC4)cc3)nc2n1-c1cccc(C(C)(C)O)n1 [AZD1775] (first compound max 1 µM, partner max 1 µM) | 0.906 | 0.874 | 0.909 | 1 | 0.652 |  | 1 | 0.676 | 0.862 | 0.829 | 1 | 0.827 | 0.906 | 0.995 | 1 | 0.802 | 0.756 | 0.954 | 0.541 | 0.837
10 | COc1cccc(OCCCN)c1-c1cc(Nc2cnc(C#N)cn2)n[nH]1 [Prexasertib] + Cc1cc2ncnn2cc1Nc1ncc2c(n1)n(C1CCOCC1)c(=O)n2C [AZD7648] (first compound max 1 µM, 7x7, partner max 10 µM) | 0.89 | 0.794 | 0.908 | 1 | 0.411 |  | 1 | 0.385 | 0.859 | 0.823 | 1 | 0.902 | 0.777 | 0.966 | 0.983 | 0.643 | 0.707 | 0.941 | 0.334 | 0.777
11 | CC1(C)CCC(CN2CCN(c3ccc(C(=O)NS(=O)(=O)c4ccc(NCC5CCOCC5)c([N+](=O)[O-])c4)c(Oc4cnc5[nH]ccc5c4)c3)CC2)=C(c2ccc(Cl)cc2)C1 [Venetoclax] + CN(C)CCCOc1ccc(-c2ccc3ncc4c(c3c2)n(C2CCOCC2)c(=O)n4C)cn1 [AZD0156] (first compound max 1 µM, 7x7, partner max 1 µM) | 0.659 | 0.369 | 0.169 | 0.741 | 0.211 |  | 1 | 0.141 | 0.488 | 0.219 | 0.822 | 0.107 | 0.413 | 0.813 | 0.628 | 0.262 | 0.252 | 0.159 | 0.864 | 0.216
12 | CC1(C)CCC(CN2CCN(c3ccc(C(=O)NS(=O)(=O)c4ccc(NCC5CCOCC5)c([N+](=O)[O-])c4)c(Oc4cnc5[nH]ccc5c4)c3)CC2)=C(c2ccc(Cl)cc2)C1 [Venetoclax] + C[C@@H](Nc1cc(F)cc(F)c1)c1cc(C(=O)N(C)C)cc2c(=O)cc(N3CCOCC3)oc12 [AZD8186] (first compound max 1 µM, 7x7, partner max 3 µM) | 0.655 | 0.114 | 0.703 | 0.422 | 0.129 |  | 1 | 0.0652 | 0.333 | 0.211 | 0.983 | 0.273 | 0.296 | 0.829 | 0.637 | 0.495 | 0.384 | 0.278 | 0.736 | 0.139
13 | COc1cccc(OCCCN)c1-c1cc(Nc2cnc(C#N)cn2)n[nH]1 [Prexasertib] + CN(C)CCCOc1ccc(-c2ccc3ncc4c(c3c2)n(C2CCOCC2)c(=O)n4C)cn1 [AZD0156] (first compound max 1 µM, 7x7, partner max 1 µM) | 0.885 | 0.741 | 0.926 | 1 | 0.324 |  | 0.998 | 0.385 | 0.753 | 0.826 | 1 | 0.871 | 0.826 | 0.947 | 0.958 | 0.624 | 0.74 | 0.93 | 0.348 | 0.82
14 | COc1cccc(OCCCN)c1-c1cc(Nc2cnc(C#N)cn2)n[nH]1 [Prexasertib] + C[C@@H]1COCCN1C2=NC(=NC(=C2)C3(CC3)[S@](=N)(=O)C)C4=C5C=CNC5=NC=C4 [AZD6738] (first compound max 1 µM, 7x7, partner max 10 µM) | 0.879 | 0.728 | 0.888 | 1 | 0.485 |  | 1 | 0.388 | 0.834 | 0.858 | 1 | 0.867 | 0.721 | 0.977 | 0.993 | 0.621 | 0.698 | 0.947 | 0.383 | 0.877
